Laboratory results reported in US20230127326A1, “C3-SUBSTITUTED 1H-PYRAZOLO[4,3-d]PYRIMIDINE COMPOUNDS AS TOLL-LIKE RECEPTOR 7 (TLR7) AGONISTS” (BRISTOL-MYERS SQUIBB COMPANY, priority 2020, published 2023).

Legend:
CD69 = assay: Induction of CD69 in human whole blood; format: cell-based; conditions: 17 hrs at 37° C., y-axis 100% set to 1 uM of resiquimod, average where assay was performed multiple times, read-out: hWB CD69 EC50
Experimental: The induction of Type I interferon (IFN) MX-1 genes and the B-cell activation marker CD69 are downstream events that occur upon activation of the TLR7 pathway. The following is a human whole blood assay that measures their induction in response to a TLR7 agonist.
Heparinized human whole blood was harvested from human subjects and treated with test TLR7 agonist compounds at 1 mM. The blood was diluted with RPMI 1640 media and Echo was used to predot 10 nL per well giving a final concentration of 1 uM (10 nL in 10 uL of blood). After mixing on a shaker for 30 sec, the plates were covered and placed in a 37° C. chamber for o/n=17 hrs. Fixing/lysis buffer was prepared (5×->1× in H2O, warm at 37° C.; Cat #BD 558049) and kept the perm buffer (on ice) for later use.
For surface markers staining (CD69): prepared surface Abs: 0.045 ul hCD14-FITC (ThermoFisher Cat #MHCD1401)+0.6 ul hCD19-ef450 (ThermoFisher Cat #48-0198-42)+1.5 ul hCD69-PE (cat #BD555531)+0.855 ul FACS buffer. Added 3 ul/well, spin 1000 rpm for 1 min and mixed on shaker for 30 sec, put on ice for 30 mins. Stop stimulation after 30 minutes with 70 uL of prewarmed 1× fix/lysis buffer and use Feliex mate to resuspend (15 times, change tips for each plate) and incubate at 37 C for 10 minutes.
Centrifuge at 2000 rpm for 5 minutes aspirate with HCS plate washer, mix on shaker for 30 sec and then wash with 70 uL in dPBS and pelleted 2×s (2000 rpm for 5 min) and 50 ul wash in FACS buffer pelleted 1×s (2000 rpm for 5 min). Mix on shaker for 30 sec. For Intracellular markers staining (MX-1): Add 50 ul of BD Perm buffer III and mix on shaker for 30 sec. Incubate on ice for 30 minutes (in the dark). Wash with 50 uL of FACS buffer 2× (spin @2300 rpm×5 min after perm) followed by mixing on shaker for 30 sec. Resuspended in 20 ul of FACS buffer containing MX1 antibody ( )(4812)-Alexa 647: Novus Biologicals #NBP2-43704AF647) 20 ul FACS bf+0.8 ul hIgG+0.04 ul MX-1. Spin 1000 rpm for 1 min, mix on shaker for 30 se and the samples were incubated at RT in the dark for 45 minutes followed by washing 2×FACS buffer (spin @2300 rpm×5 min after perm). Resuspend 20 ul (35 uL total per well) of FACS buffer and cover with foil and place in 4° C. to read the following day. Plates were read on iQuePlus. The results were loaded into toolset and […] curves are generated in curve master. The y-axis 100% is set to 1 uM of resiquimod.

human TLR7 = biological target: T1, human TLR7 (Homo sapiens, UniProt Q9NYK1); assay: Human TLR7 agonist activity reporter assay (HEK-Blue TLR7 cells, SEAP reporter); format: cell-based; conditions: 18 h treatment, average where assay was performed multiple times, read-out: hTLR7 Agonism EC50
T1 construct: host or cells: HEK-Blue TLR7 cells (engineered human embryonic kidney cells)
T1 sequence (Q9NYK1 27-1049): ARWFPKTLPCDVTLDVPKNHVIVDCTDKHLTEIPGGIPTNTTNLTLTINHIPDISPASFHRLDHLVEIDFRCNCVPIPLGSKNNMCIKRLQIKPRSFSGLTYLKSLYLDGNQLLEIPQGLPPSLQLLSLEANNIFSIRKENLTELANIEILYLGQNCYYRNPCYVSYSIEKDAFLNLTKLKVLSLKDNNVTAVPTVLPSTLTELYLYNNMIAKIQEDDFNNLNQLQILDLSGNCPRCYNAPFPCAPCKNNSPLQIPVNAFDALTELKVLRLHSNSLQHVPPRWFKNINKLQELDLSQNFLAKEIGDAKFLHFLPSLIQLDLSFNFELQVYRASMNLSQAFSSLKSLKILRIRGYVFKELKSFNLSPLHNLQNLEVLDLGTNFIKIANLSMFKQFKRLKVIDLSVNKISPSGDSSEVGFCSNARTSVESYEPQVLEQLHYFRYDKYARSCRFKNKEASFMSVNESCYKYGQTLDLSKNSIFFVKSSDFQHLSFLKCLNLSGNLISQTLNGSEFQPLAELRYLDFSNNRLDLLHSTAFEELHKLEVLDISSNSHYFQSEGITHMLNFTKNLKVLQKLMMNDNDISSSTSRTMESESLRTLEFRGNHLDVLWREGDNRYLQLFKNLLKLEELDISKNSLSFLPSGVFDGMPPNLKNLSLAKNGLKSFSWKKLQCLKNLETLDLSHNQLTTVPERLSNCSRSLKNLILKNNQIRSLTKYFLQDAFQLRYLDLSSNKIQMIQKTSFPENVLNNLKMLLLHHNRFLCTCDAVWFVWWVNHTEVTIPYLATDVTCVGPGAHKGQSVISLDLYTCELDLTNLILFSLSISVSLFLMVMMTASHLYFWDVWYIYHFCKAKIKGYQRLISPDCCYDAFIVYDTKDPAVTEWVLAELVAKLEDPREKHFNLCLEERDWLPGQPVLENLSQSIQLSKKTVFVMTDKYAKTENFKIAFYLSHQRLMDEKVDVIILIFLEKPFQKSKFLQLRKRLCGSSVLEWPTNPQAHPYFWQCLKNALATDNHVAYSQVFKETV
Experimental: This procedure describes a method for assaying human TLR7 (hTLR7) agonist activity of the compounds disclosed in this specification.
HEK-Blue™ TLR7 cells were added to each well of a 384-well tissue-culture plate (15,000 cells per well) and incubated 16-18 h at 37° C., 5% CO2. Compounds (100 nl) were dispensed into wells containing the HEK-Blue™ TLR cells and the treated cells were incubated at 37° C., 5% CO2. After 18 h treatment ten microliters of freshly-prepared Quanti-Blue™ reagent (Invivogen) was added to each well, incubated for 30 min (37° C., 5% CO2) and SEAP levels measured using an Envision plate reader (OD=620 nm). The half maximal effective concentration values (EC50; compound concentration which induced a response halfway between the assay baseline and maximum) were calculated.

| SMILES | EC50 (CD69) [nM] | EC50 (human TLR7) [nM] |
| --- | --- | --- |
| CCCCNc1nc(N)nc2c(CO)nn(Cc3ccc(CN4CCN(CCO)CC4)cc3OC)c12 [Compound 119, 2-{4-[(4-{[5-amino-7-(butyl-amino)-3-(hydroxymethyl)-1H-pyrazolo[4,3-d]pyrimidin-l-yl]methyl}-3-methoxy-phenyl)methyl]piperazin-1-yl}ethan-1-ol] | 177 | 433 |
| CCCCNc1nc(N)nc2c(C)nn(Cc3ccc(CNC4CCC4)cc3OC)c12 [Compound 103, N7-butyl-1-({4-[(cyclobutylamino)methyl]-2-methoxyphenyl}methyl)-3-methyl-1H-pyrazolo[4,3-d]pyrimidine-5,7-diamine] | 15.4 | 101 |
| CCCCNc1nc(N)nc2c(Br)nn(Cc3ccc(CNC4CCOCC4)cc3OC)c12 [Compound 101, 3-bromo-N7-butyl-1-[(2-methoxy-4-{[(oxan-4-yl)amino]methyl}phenyl)-methyl]-1H-pyrazolo[4,3-d]pyrimidine-5,7-diamine] | 365 | 2000 |
| CCCCNc1nc(N)nc2c(C(F)(F)F)nn(Cc3ccc(CNC4CCOCC4)cc3OC)c12 [Compound 117, N7-butyl-1-[(2-methoxy-4-{[(oxan-4-yl)amino]methyl}-phenyl)methyl]-3-(trifluoro-methyl)-1H-pyrazolo[4,3-d]pyrimidine-5,7-diamine] | 1000 | – |
| CCCCNc1nc(N)nc2c(CO)nn(Cc3ccc(CNC4CCOCC4)cc3OC)c12 [Compound 118, [5-amino-7-(butylamino)-1-[(2-methoxy-4-{[(oxan-4-yl)amino]methyl}phenyl)-methyl]-1H-pyrazolo[4,3-d]pyrimidin-3-yl]methanol] | 252 | 594 |
| CCCCNc1nc(N)nc2c(C)nn(Cc3ccc(CN4CCN(CCO)CC4)cc3OC)c12 [Compound 106, 2-{4-[(4-{[5-amino-7-(butylamino)-3-methyl-1H-pyrazolo[4,3-d]pyrimidin-1-yl]methyl}-3-methoxy-phenyl)methyl]piperazin-1-yl}ethan-1-ol] | 20.6 | 63.3 |
| CCC[C@@H](CO)Nc1nc(N)nc2c(C)nn(Cc3ccc(CN4CCN(CCO)CC4)cc3OC)c12 [Compound 125, (2S)-2-({5-amino-1-[(4-{[4-(2-hydroxyethyl)piperazin-1-yl]methyl}-2-methoxy-phenyl)methyl]-3-methyl-1H-pyrazolo[4,3-d]pyrimidin-7-yl}amino)pentan-1-ol] | 237 | 236 |
| CCCCNc1nc(N)nc2c(F)nn(Cc3ccc(CN4CCN(CCO)CC4)cc3OC)c12 [Compound 110, 2-{4-[(4-{[5-amino-7-(butylamino)-3-fluoro-1H-pyrazolo[4,3-d]pyrimidin-1-yl]methyl}-3-methoxyphenyl)methyl]-piperazin-1-yl}ethan-1-ol] | 44.9 | 22.9 |
| CCCCNc1nc(N)nc2c(Cl)nn(Cc3ccc(CNC4CCOCC4)cc3OC)c12 [Compound 111, N7-butyl-3-chloro-1-[(2-methoxy-4-{[(oxan-4-yl)amino]methyl}phenyl)-methyl]-1H-pyrazolo[4,3-d]pyrimidine-5,7-diamine] | 97 | 1410 |
| CCC[C@@H](CCO)Nc1nc(N)nc2c(C)nn(Cc3ncc(CN4CCN(CCO)CC4)cc3OC)c12 [Compound 135, (3S)-3-({5-amino-1-[(5-{[4-(2-hydroxyethyl)piperazin-1-yl]methyl}-3-methoxypyridin-2-yl)methyl]-3-methyl-1H-pyrazolo[4,3-d]pyrimidin-7-yl}amino)hexan-1-ol] | – | 1110 |
| CCCCNc1nc(N)nc2c(C(C)C)nn(Cc3ccc(CNC4CCOCC4)cc3OC)c12 [Compound 123, N7-butyl-1-[(2-methoxy-4-{[(oxan-4-yl)amino]methyl}-phenyl)methyl]-3-(propan-2-yl)-1H-pyrazolo[4,3-d]pyrimidine-5,7-diamine] | 418 | 1040 |
| CCC[C@@H](CCO)Nc1nc(N)nc2c(C)nn(Cc3ccc(CN4CCN(CCO)CC4)cc3OC)c12 [Compound 128, (3S)-3-({5-amino-1-[(4-{[4-(2-hydroxyethyl)piperazin-1-yl]methyl}-2-methoxy-phenyl)methyl]-3-methyl-1H-pyrazolo[4,3-d]pyrimidin-7-yl}amino)hexan-1-ol] | 1.2 | 7.2 |
| CCCCNc1nc(N)nc2c(C)nn(Cc3ccc(CNC4CCOCC4)cc3OC)c12 [Compound 104, N7-butyl-1-[(2-methoxy-4-{[(oxan-4-yl)amino]methyl}-phenyl)methyl]-3-methyl-1H-pyrazolo[4,3-d]pyrimidine-5,7-diamine] | 41.8 | 91.3 |
| CCCCNc1nc(N)nc2c(OC)nn(Cc3ccc(CNC4CCOCC4)cc3OC)c12 [Compound 115, N7-butyl-3-methoxy-1-[(2-methoxy-4-{[(oxan-4-yl)amino]methyl}phenyl)-methyl]-1H-pyrazolo[4,3-d]pyrimidine-5,7-diamine] | 8.1 | 40.1 |
| CCCCNc1nc(N)nc2c(-c3ccccc3)nn(Cc3ccc(CNC4CCOCC4)cc3OC)c12 [Compound 113, N7-butyl-1-[(2-methoxy-4-{[(oxan-4-yl)amino]methyl}-phenyl)methyl]-3-phenyl-1H-pyrazolo[4,3-d]pyrimidine-5,7-diamine] | 1000 | – |
| CCCCNc1nc(N)nc2c(C)nn(Cc3ccc(CN4CCN(CCOC)CC4)cc3OC)c12 [Compound 136, N7-butyl-1-[(2-methoxy-4-{[4-(2-methoxyethyl)piperazin-1-yl]methyl}phenyl)methyl]-3-methyl-1H-pyrazolo[4,3-d]pyrimidine-5,7-diamine] | – | 163 |
| CCCCNc1nc(N)nc2c(C)nn(Cc3ccc(CN4CCN(CC(C)(C)O)CC4)cc3OC)c12 [Compound 137, 1-{4-[(4-{[5-amino-7-(butylamino)-3-methyl-1H-pyrazolo[4,3-d]pyrimidin-1-yl]methyl}-3-methoxyphenyl)methyl]piperazin-1-yl}-2-methylpropan-2-ol] | – | 65.8 |
